Data published in PubChem BioAssay (NCI).
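Test compounds were applied to cells in 96-well plates for 48 hours at 5 doses. TGI: total growth inhibition.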

Key:
Assay in all cases: NCI-60 cell line screen, 48 h
786-0 renal = test system: 786-0 renal
HCT-15 colon = test system: HCT-15 colon
K-562 leukemia = test system: K-562 leukemia
LOX IMVI melanoma = test system: LOX IMVI melanoma
NCI-H23 lung = test system: NCI-H23 lung
NCI-H460 lung = test system: NCI-H460 lung
RPMI-8226 leukemia = test system: RPMI-8226 leukemia
SF-295 CNS = test system: SF-295 CNS
SK-MEL-2 melanoma = test system: SK-MEL-2 melanoma
DU-145 prostate = test system: DU-145 prostate

Row | SMILES | TGI (786-0 renal) [µM] | TGI (HCT-15 colon) [µM] | TGI (K-562 leukemia) [µM] | TGI (LOX IMVI melanoma) [µM] | TGI (NCI-H23 lung) [µM] | TGI (NCI-H460 lung) [µM] | TGI (RPMI-8226 leukemia) [µM] | TGI (SF-295 CNS) [µM] | TGI (SK-MEL-2 melanoma) [µM] | TGI (DU-145 prostate) [µM]
1 | COc1ccc(/C(Cl)=C(\C=N/O)c2ccc(OC)c(OC)c2)cc1OC | > 100 | > 100 | > 100 | > 100 | > 100 | > 100 | > 100 | > 100 | > 100 | 
2 | O=C(CN1CCOCC1)c1ccc2c(c1)oc(=O)n2CCN1CCOCC1 | > 100 |  | > 100 | > 100 |  |  | > 100 | > 100 | > 100 | > 100
3 | CN(/N=C/c1cccc2cccnc12)c1ccc(Cl)cc1[N+](=O)[O-] | > 100 | > 100 | > 100 |  | > 100 | > 100 | > 100 | > 100 | > 100 | > 100
4 | CC1=C(c2ccccc2)NC(=S)C(C)C(c2ccccc2)=N1 (stereo unspecified) | > 100 | > 100 | 28.6 | > 100 | 70.4 | > 100 | 57.5 | > 100 |  | > 100
5 | O=c1[nH]nc(Cc2c[nH]c3ccccc23)o1 | > 100 | > 100 | > 100 | > 100 | > 100 |  | > 100 | > 100 | > 100 | > 100
6 | CCCCCCCCCCCCCCCCCCNC(=S)/N=C\C1=C(O)c2ccccc2C1=O | 21.2 | 26.7 |  | 17 | 31.9 | 26.2 | 33.1 | 31.2 |  | 19.2
7 | N#Cc1c(N2CCC(O)C2)c2ccccc2n2c1nc1ccccc12 (stereo unspecified) | 50.6 | > 100 |  | > 100 | > 100 | > 100 | > 100 | > 100 | > 100 | > 100
8 | COc1cc(C2c3cc4c(cc3OC(NNS(=O)(=O)c3ccc(C)cc3)C2C)OCO4)cc(OC)c1O (stereo unspecified) | 42.9 | 22.6 | 45.7 | 52.3 | 76.4 | 17.5 | 41.9 | 17.7 |  | > 100
9 | CC(=O)Nc1ccc2c3c(cc(O)c2c1)N(C(=O)CCCCCCC(=O)N1CC(CCl)c2c1cc(O)c1cc(NC(C)=O)ccc21)CC3CCl (stereo unspecified) | 0.0204 | 3.59 | > 100 | 0.361 | 0.0228 |  |  | 3.19 | < 0.01 | < 0.01
10 | O=C1C(=O)N(c2cccc(C(F)(F)F)c2)C(=S)N1c1ccccc1 | > 100 | 40.7 | > 100 |  | 82.9 | 6.49 | > 100 | > 100 | 40.5 | > 100
11 | O=C(Nc1ccc2[nH]c(C(=O)N3CC(CCl)c4c3cc([N+](=O)[O-])c3ccccc43)cc2c1)Nc1ccc2[nH]c(C(=O)N3CC(CCl)c4c3cc([N+](=O)[O-])c3ccccc43)cc2c1 (stereo unspecified) | > 100 | > 100 |  |  | > 100 | > 100 | > 100 | > 100 | > 100 | > 100
12 | NCCCC[C@H](N)C(=O)Nc1ccc(-c2nc3ccccc3s2)cc1 | 32.9 | 33.7 | 36.3 | 72 | 67.7 | 34.9 |  | 31 | > 100 | 49.1
13 | [N-]=[N+]=NC(c1cn(C2CC(O)C(CO)O2)c(=O)[nH]c1=O)C(Cl)I (stereo unspecified) | > 100 | > 100 |  |  | > 100 | > 100 | > 100 | > 100 | > 100 | > 100
14 | COC1C(O)C(n2ncc3c(SC)nc(SC)nc32)OC1C(O)CO (stereo unspecified) |  | > 100 | > 100 | > 100 | > 100 | > 100 | > 100 | > 100 | > 100 | 
15 | CS(=O)(=O)c1ccc(N=C/C=C/Nc2ccc(S(C)(=O)=O)cc2)cc1 | > 100 | > 100 | > 100 |  | > 100 | > 100 | > 100 | > 100 | > 100 | > 100
16 | CC1=C(O)C(=O)C2C(=O)C1C1Cc3ccccc3C21 (stereo unspecified) | > 100 | > 100 | > 100 | > 100 | > 100 |  | > 100 | > 100 | > 100 | 
17 | CCOc1ccc(N/C(=C(/C(Cl)=C(/Cl)N2CCCCC2)[N+](=O)[O-])n2nnc3ccccc32)cc1 | 39.8 | 29 | > 100 |  | 29.7 | 70.4 | > 100 | 49 | 33.3 | 82.4
18 | CC(C)NC(=O)N(Nc1ccccc1)C(C)(C)C | > 100 | > 100 | > 100 | > 100 | > 100 | > 100 |  | > 100 | > 100 | 
19 | C=CCN(C(=O)OC(C)(C)C)[C@H](C)C(=O)N[C@@H](C)C(=O)OC | > 100 | > 100 | > 100 | > 100 | > 100 |  | > 100 | > 100 | > 100 | > 100
20 | Cc1c2c(c(O)c3c(O)cccc13)C(=O)C1(O)C(O)=C(C(=O)NCNc3ccc(C(N)=O)cn3)C(=O)C(N(C)C)C1C2 (stereo unspecified) | > 100 | 8.56 | 6.26 | > 100 | 39.3 |  | 7.59 | 17.9 | 34.1 | 20
21 | COC1CN(C)C(=Nc2cccc3ccccc23)S1 (stereo unspecified) | > 10 | > 10 | > 10 | > 10 | > 10 |  | > 10 | > 10 |  | > 10
22 | O=C1c2ccccc2-c2nnc3c(c21)-c1ccccc1C3 | > 100 | > 100 |  |  | > 100 | > 100 | > 100 | > 100 | > 100 | > 100
23 | CC(=O)OCC1OC(n2c(-c3ccccc3)c(C(C)=O)c(-c3cccc4ccccc34)c(C#N)c2=S)C(OC(C)=O)C(OC(C)=O)C1OC(C)=O (stereo unspecified) | > 100 | > 100 | > 100 | > 100 | > 100 | > 100 |  | > 100 | > 100 | > 100
